Results published in ChEMBL document CHEMBL5465560, “Selectivity Literature for EUbOPEN Chemogenomic Library” (2024).

How the values were obtained:
[1] = target: Protein polybromo-1 (Homo sapiens) (UniProt Q86U86); assay: Selectivity interaction (Human bromodomain panel (DSF assay)) EUB0000233b PBRM1
[2] = target: Mitogen-activated protein kinase 8 (Homo sapiens, UniProt P45983); assay: Selectivity interaction (KinomeScan (DiscoverX)) EUB0000595a MAPK8; settings: at 10 µM
[3] = Selectivity interaction (KinomeScan (DiscoverX)) EUB0000045b CDPK1
[4] = target: T1, Serine/threonine-protein kinase RIO1 (Homo sapiens) (UniProt Q9BRS2); assay: Selectivity interaction (KinomeScan (DiscoverX)) EUB0001079a RIOK1; settings: at 1 µM
T1 sequence (whole entry): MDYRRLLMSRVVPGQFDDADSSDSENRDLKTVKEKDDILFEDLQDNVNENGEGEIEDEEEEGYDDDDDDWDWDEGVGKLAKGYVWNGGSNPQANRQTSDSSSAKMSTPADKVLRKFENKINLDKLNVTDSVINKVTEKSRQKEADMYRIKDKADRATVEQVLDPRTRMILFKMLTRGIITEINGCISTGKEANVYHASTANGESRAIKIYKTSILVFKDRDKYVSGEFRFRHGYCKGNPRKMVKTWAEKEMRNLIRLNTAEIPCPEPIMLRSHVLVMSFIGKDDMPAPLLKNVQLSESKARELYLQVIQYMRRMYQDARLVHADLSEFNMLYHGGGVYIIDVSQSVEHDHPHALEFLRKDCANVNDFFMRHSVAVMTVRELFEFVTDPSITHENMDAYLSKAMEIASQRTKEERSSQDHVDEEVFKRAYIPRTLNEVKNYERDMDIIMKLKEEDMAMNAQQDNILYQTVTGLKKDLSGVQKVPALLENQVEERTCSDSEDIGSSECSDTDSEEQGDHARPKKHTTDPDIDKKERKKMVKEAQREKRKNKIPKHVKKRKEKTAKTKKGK

[5] = Selectivity interaction (KinomeScan (DiscoverX)) EUB0000666a CDPK1; settings: at 10 µM
[6] = target: Serine/threonine-protein kinase tousled-like 2 (Homo sapiens) (UniProt Q86UE8); assay: Selectivity interaction (KinomeScan (DiscoverX)) EUB0000666a TLK2; settings: at 10 µM
Chain of Serine/threonine-protein kinase tousled-like 2 (Homo sapiens) (Q86UE8 whole entry, looked up): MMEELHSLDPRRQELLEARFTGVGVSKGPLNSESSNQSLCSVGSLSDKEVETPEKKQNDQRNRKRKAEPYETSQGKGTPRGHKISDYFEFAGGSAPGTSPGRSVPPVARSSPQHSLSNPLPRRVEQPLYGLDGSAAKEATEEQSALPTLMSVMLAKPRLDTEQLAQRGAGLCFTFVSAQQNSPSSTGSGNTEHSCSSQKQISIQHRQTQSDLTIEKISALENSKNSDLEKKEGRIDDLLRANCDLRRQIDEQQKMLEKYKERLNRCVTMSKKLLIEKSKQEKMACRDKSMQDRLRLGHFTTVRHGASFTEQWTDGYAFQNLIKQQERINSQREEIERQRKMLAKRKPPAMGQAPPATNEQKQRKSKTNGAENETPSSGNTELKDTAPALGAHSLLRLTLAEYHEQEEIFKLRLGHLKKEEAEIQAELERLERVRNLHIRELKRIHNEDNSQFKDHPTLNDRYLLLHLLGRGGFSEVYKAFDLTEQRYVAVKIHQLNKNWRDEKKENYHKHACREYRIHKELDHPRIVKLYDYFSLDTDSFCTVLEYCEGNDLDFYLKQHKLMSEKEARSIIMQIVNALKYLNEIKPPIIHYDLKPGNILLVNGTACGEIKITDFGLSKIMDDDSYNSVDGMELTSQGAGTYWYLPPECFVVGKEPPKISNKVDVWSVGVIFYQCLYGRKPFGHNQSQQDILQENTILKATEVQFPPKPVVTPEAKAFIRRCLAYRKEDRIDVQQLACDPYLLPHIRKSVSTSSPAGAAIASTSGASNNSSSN

[7] = target: T2, Testis-specific serine/threonine-protein kinase 2 (Homo sapiens) (UniProt Q96PF2); assay: Selectivity interaction (Kinase screening (Nanosyn)) EUB0000604a TSSK2
T2 sequence (whole entry): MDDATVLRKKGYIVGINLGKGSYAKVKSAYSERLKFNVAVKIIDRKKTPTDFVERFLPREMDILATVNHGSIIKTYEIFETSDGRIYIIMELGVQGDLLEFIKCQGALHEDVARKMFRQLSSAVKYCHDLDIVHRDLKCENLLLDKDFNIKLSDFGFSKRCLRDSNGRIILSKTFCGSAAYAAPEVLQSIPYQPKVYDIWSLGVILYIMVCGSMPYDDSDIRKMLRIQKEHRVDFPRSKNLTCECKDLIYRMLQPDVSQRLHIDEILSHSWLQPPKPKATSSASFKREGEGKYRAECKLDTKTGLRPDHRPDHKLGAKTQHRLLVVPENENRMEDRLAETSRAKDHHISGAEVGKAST

[8] = target: T3, Activin receptor type-1 (Homo sapiens) (UniProt Q04771); assay: Selectivity interaction (KinomeScan (DiscoverX)) EUB0001049a ACVR1; settings: at 1 µM
T3 sequence (whole entry): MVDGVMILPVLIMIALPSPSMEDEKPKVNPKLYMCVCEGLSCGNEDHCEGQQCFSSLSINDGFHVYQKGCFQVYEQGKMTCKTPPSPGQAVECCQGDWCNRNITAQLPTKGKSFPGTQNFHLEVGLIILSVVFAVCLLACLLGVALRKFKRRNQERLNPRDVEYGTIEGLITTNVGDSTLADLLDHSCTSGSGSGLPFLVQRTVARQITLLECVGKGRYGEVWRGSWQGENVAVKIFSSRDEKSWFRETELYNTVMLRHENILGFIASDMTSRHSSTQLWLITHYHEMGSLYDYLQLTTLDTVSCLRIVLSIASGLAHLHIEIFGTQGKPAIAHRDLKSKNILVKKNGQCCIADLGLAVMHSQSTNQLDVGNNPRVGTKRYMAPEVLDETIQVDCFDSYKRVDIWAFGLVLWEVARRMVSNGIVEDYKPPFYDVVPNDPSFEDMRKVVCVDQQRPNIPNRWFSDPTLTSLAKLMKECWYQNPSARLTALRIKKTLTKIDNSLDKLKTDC

[9] = target: T4, Protein kinase C zeta type (Homo sapiens) (UniProt Q05513); assay: Selectivity interaction (ProQinase) EUB0000171b PRKCZ
T4 sequence (whole entry): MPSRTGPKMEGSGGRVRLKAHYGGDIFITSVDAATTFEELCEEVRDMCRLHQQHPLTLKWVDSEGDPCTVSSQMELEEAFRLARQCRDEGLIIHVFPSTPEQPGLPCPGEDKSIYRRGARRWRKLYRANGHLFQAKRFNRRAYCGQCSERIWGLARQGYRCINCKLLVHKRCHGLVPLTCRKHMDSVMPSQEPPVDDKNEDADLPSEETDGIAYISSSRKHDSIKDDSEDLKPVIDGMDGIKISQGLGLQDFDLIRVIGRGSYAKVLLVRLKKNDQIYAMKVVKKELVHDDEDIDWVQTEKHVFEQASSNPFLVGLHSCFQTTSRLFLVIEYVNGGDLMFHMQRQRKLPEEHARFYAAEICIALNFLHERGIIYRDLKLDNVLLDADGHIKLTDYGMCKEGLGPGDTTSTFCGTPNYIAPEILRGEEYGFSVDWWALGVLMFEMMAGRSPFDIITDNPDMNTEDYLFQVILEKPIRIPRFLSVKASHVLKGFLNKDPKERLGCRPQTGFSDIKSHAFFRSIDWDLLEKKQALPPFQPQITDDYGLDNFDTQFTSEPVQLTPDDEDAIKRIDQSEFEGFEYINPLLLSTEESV

[10] = target: Phosphatidylinositol 4-phosphate 5-kinase type-1 gamma (Homo sapiens) (UniProt O60331); assay: Selectivity interaction (KinomeScan (DiscoverX)) EUB0000607a PIP5K1C; settings: at 10 µM
Chain of Phosphatidylinositol 4-phosphate 5-kinase type-1 gamma (Homo sapiens) (O60331 whole entry): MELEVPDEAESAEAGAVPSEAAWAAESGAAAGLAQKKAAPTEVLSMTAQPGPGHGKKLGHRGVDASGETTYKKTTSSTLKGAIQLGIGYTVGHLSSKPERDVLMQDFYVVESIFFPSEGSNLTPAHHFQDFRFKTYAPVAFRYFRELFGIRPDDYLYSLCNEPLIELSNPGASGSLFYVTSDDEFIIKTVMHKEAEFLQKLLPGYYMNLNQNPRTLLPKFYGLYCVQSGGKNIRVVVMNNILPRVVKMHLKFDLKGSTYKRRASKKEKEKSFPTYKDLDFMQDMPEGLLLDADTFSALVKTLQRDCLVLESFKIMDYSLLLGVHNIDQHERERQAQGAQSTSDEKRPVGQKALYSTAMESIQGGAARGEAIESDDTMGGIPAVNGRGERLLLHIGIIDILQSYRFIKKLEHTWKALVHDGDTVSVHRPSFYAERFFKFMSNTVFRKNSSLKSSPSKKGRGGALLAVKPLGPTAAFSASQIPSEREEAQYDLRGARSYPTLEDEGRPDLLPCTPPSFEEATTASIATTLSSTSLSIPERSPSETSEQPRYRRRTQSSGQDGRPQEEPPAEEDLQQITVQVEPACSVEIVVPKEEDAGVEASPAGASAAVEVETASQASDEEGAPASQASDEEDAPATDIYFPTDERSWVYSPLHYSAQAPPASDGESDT

[11] = target: Calcium/calmodulin-dependent protein kinase type II subunit beta (Homo sapiens) (UniProt Q13554); assay: Selectivity interaction (ActivX KiNativ screen (kinase selectivity in THP-1 cell lysates)) EUB0000639a CAMK2B; type: subcellular; settings: lysate, at 0.2 µM
[12] = target: Serine/threonine-protein kinase PRP4 homolog (Homo sapiens) (UniProt Q13523); assay: Selectivity interaction (ActivX KiNativ screen (kinase selectivity in THP-1 cell lysates)) EUB0000639a PRPF4; type: subcellular; settings: lysate, at 0.2 µM
Chain of Serine/threonine-protein kinase PRP4 homolog (Homo sapiens) (Q13523 whole entry): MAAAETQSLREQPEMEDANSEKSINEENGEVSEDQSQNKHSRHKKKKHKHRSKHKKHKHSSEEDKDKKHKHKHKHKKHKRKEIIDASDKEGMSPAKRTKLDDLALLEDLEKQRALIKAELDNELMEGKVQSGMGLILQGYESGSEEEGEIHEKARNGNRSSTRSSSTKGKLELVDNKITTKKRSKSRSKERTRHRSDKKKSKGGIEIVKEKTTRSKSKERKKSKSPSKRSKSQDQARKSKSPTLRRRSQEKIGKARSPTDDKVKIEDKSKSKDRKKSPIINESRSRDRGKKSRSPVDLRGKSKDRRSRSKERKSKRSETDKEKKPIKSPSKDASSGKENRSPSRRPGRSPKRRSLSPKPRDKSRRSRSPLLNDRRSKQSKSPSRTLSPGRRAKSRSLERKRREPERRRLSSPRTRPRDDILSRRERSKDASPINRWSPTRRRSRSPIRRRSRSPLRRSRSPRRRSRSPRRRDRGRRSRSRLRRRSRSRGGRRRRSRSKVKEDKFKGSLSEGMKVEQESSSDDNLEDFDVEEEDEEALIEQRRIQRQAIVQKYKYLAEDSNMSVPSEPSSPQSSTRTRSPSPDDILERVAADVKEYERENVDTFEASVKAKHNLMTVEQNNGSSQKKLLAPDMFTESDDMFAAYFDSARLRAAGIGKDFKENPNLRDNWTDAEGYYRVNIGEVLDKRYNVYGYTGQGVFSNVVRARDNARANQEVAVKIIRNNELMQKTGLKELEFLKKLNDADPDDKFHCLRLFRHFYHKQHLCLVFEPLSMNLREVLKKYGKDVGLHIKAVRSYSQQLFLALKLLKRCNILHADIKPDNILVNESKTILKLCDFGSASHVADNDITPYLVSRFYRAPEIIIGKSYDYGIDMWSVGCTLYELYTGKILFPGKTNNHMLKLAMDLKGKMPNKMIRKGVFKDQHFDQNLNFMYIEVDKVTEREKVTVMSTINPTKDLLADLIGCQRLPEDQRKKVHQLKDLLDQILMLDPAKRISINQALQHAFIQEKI

Chain of Protein polybromo-1 (Homo sapiens) (Q86U86 whole entry): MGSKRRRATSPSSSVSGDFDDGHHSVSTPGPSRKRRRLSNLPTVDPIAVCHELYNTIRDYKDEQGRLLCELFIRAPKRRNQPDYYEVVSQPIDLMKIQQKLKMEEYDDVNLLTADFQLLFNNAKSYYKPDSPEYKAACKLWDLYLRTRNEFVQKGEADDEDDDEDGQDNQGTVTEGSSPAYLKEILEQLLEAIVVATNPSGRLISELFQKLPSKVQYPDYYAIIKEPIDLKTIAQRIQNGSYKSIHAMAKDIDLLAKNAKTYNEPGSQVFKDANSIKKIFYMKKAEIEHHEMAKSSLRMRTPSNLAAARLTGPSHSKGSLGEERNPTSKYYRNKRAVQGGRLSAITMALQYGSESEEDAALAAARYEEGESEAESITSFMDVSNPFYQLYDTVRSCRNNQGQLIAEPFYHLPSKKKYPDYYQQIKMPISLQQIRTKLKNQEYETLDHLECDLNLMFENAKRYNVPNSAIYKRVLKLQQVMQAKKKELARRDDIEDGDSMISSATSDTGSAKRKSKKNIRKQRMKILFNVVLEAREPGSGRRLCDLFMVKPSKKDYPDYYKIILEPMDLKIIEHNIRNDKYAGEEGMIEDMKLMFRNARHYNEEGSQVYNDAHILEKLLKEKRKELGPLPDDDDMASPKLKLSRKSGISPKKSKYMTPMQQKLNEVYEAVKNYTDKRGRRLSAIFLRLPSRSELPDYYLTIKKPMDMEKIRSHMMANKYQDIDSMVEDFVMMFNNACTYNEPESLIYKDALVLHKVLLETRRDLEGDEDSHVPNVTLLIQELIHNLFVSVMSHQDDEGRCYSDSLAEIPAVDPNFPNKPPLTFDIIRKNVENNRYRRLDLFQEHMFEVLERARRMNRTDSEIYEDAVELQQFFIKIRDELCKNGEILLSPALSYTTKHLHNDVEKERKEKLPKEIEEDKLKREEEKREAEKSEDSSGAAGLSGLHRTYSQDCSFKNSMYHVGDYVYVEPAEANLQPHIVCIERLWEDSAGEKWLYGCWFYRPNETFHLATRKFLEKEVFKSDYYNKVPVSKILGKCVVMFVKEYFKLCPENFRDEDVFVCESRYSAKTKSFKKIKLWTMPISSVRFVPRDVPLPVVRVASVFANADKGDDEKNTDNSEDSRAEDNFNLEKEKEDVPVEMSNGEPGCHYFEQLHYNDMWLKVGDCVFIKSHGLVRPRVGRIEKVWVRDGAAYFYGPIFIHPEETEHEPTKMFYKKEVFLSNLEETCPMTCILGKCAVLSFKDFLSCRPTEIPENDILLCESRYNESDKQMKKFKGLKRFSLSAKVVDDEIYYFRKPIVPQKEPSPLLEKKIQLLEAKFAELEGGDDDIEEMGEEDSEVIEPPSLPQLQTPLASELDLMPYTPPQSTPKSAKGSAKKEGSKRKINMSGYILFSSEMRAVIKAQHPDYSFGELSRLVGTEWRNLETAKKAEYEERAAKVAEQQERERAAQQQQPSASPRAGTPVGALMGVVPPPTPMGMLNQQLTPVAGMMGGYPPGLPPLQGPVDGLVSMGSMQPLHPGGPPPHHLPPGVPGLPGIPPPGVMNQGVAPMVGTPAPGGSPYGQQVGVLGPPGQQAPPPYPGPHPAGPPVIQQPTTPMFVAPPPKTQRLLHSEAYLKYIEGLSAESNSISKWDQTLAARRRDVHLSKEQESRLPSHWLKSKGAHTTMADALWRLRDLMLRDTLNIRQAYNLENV
Chain of Mitogen-activated protein kinase 8 (P45983 whole entry): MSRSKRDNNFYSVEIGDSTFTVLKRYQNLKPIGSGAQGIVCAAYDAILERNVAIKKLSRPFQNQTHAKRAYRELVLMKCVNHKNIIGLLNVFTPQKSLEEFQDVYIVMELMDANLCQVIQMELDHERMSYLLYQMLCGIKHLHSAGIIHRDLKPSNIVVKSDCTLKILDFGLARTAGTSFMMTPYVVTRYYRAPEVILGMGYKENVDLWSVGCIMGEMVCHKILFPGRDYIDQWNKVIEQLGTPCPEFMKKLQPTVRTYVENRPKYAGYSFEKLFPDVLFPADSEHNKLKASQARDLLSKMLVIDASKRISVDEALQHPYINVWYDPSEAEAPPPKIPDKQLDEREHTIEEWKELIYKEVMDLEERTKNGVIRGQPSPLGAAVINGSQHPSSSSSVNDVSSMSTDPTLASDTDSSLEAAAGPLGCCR

In the case of `CN(C)CCCOc1ccc(-c2cc(NCCCn3cccn3)nc(S(C)(=O)=O)n2)cc1`, the dTM [1] is reported as less than 2 K.

`COCC(=O)NC/C=C/c1ccc2ncnc(Nc3ccc(Oc4ccc(C)nc4)c(C)c3)c2c1` [CP-724714] gave a % of control [2] of 66%.

In the case of `C=CC(=O)Nc1cc(-n2c(=O)ccc3cnc4ccc(-c5ccc(NS(C)(=O)=O)cc5)cc4c32)ccc1C`, the % of control ([3]; at 1 µM) is reported as 100% and the % of control ([3]; at 10 µM) is reported as 62%.

`Nc1cnc(N2CCc3cc(S(=O)(=O)Nc4c(F)cc(Cl)cc4F)cc(N4CCCC4=O)c32)nc1` [TP-020n] showed a % of control [4] of 100%.

With `O=C(NOC[C@H](O)CO)c1ccc(F)c(F)c1Nc1ccc(I)cc1F` the % of control [5] was 78% and the % of control [6] was 98%.

Compound `Cc1cnc(Nc2ccc(F)cc2Cl)nc1-c1c[nH]c(C(=O)N[C@H](CO)c2cccc(Cl)c2)c1` has a % of inhibition [7] of 3%.

Compound `COc1cc(Nc2nc(C)cc(-c3cnn4nc(OC)ccc34)n2)cc(C(F)(F)F)c1` has a % of control [8] of 78%.

Compound `C=CC(=O)Nc1cccc(C(=O)Nc2ccc(Nc3cc(-c4[nH]c(SC)nc4C)ccn3)cc2)c1` has a % of control ([9]; at 1 µM) of 87% and a % of control ([9]; at 5 µM) of 86%.

For `CNC(=O)Nc1ccc(-c2nc(N3CC4CCC(C3)O4)c3cnn(C4CCC5(CC4)OCCO5)c3n2)cc1`, the % of control [10] was 100%.

Work on `CC[C@@H]1[C@H](F)C(=O)N[C@@H]1COc1nccc2cc(C(N)=O)c(OC)cc12` [ZIMLOVISERTIB] yielded a % of inhibition [11] of 4.9% and a % of inhibition [12] of 21.9%.
